Reference: ChEMBL document CHEMBL1123320, “Studies in potential filaricides. 18. Synthesis of 2,2'-disubstituted 5,5'-dibenzimidazolyl ketones and related compounds as potential anthelmintics” (1986)

Experiments:
[1] = tested on: Mastomys natalensis; test: Filaricidal activity against Brugia malayi in Mastomys at a dosage of 50 mg/kg x 5 administered intraperitoneally; assay type: functional; conditions: route intraperitoneal
[2] = tested on: Mastomys natalensis; test: Filaricidal activity against Dipetalonema viteae in Mastomys at a dosage of 175 mg/kg x 5 administered subcutaneous; assay type: functional
[3] = tested on: Mastomys natalensis; test: Filaricidal activity against Brugia malayi in Mastomys at a dosage of 50 mg/kg x 5 administered intraperitoneally at a day of 21; assay type: functional; conditions: route intraperitoneal
[4] = tested on: Mastomys natalensis; test: Filaricidal activity against Brugia malayi in Mastomys at a dosage of 50 mg/kg x 5 administered intraperitoneally at a day of 42; assay type: functional; conditions: route intraperitoneal
[5] = tested on: Mastomys natalensis; test: Filaricidal activity against Brugia malayi in Mastomys at a dosage of 50 mg/kg x 5 administered intraperitoneally at a day of 63; assay type: functional; conditions: route intraperitoneal
[6] = tested on: Mastomys natalensis; test: Filaricidal activity against Brugia malayi in Mastomys at a dosage of 50 mg/kg x 5 administered intraperitoneally at a day of 8; assay type: functional; conditions: route intraperitoneal
[7] = tested on: Mastomys natalensis; test: Filaricidal activity against Brugia malayi in Mastomys at a dosage of 50 mg/kg x 5 administered intraperitoneally at a day of 91; assay type: functional; conditions: route intraperitoneal
[8] = tested on: Mastomys natalensis; test: Filaricidal activity against Dipetalonema viteae in Mastomys at a dosage of 175 mg/kg x 5 administered subcutaneous at a day of 21; assay type: functional
[9] = tested on: Mastomys natalensis; test: Filaricidal activity against Dipetalonema viteae in Mastomys at a dosage of 175 mg/kg x 5 administered subcutaneous at a day of 42; assay type: functional
[10] = tested on: Mastomys natalensis; test: Filaricidal activity against Dipetalonema viteae in Mastomys at a dosage of 175 mg/kg x 5 administered subcutaneous at a day of 8; assay type: functional
[11] = tested on: Rattus norvegicus; test: Filaricidal activity against Litomosoides carinii in cotton rats at a dosage of 6 mg/kg x 5 administered intraperitoneally; assay type: functional; conditions: route intraperitoneal
[12] = Filaricidal activity against Litomosoides carinii in cotton rats at a dosage of 6 mg/kg x 5 administered intraperitoneally at a day of 8; conditions: route intraperitoneal

CCN(CC)C(=O)N1CCN(C)CC1 [DIETHYLCARBAMAZINE]
Death [1]: 57.8%
Death [2]: 0%
Removal of microfilariae [3]: 88.6%
Removal of microfilariae [4]: 90.7%
Removal of microfilariae [5]: 71.6%
Removal of microfilariae [6]: 95.9%
Removal of microfilariae [7]: 91.6%
Removal of microfilariae [8]: 94.1%
Removal of microfilariae [9]: 51.6%
Removal of microfilariae [10]: 99.6%
Death [11]: 0%
Removal of microfilariae [12]: 97.1%
